Results from publication PMC6273621, “Synthesis and the Biological Activity of Phosphonylated 1,2,3-Triazolenaphthalimide Conjugates” (Molecules, 2016).
Where two headings read alike, the source gives them in different places.

Columns and labels:
[1] = Cytotoxicity, cell growth (CC50) in HEL cells; type: cell-based; settings: human, concentration reducing cell growth by 50%
TK+ VZV strain = test: microbe, parasite or virus in culture; type: cell-based, varicella-zoster virus (VZV) strain Oka; settings: concentration reducing virus plaque formation by 50%
TK− VZV strain = test: microbe, parasite or virus in culture; type: cell-based, varicella-zoster virus (VZV) strain 07−1; settings: concentration reducing virus plaque formation by 50%
HEL cells = test: Cytotoxicity, cell morphology (MCC) in HEL cells; type: cell-based, human; settings: minimum cytotoxic concentration causing microscopically detectable alteration of cell morphology
Excerpt: The cytotoxicity of the tested compounds toward the uninfected host cells was defined as the minimum cytotoxic concentration (MCC) that causes a microscopically detectable alteration of normal cell morphology.

With `O=c1[nH]c(=O)n([C@H]2C[C@H](O)[C@@H](CO)O2)cc1/C=C/Br` [Brivudin, reference compound] the CC50 [1] was greater than 300 µM, the EC50 (TK+ VZV strain; Human alphaherpesvirus 3, HEL, read-out: Antiviral Activity EC50, TK+ VZV Strain, HEL cell cultures) was 0.013 µM and the EC50 (TK+ VZV strain; read-out: Antiviral Activity EC50, TK+ VZV Strain, HEL cell cultures) was 0.0078 µM. For the same compound, the EC50 (TK− VZV strain; Human alphaherpesvirus 3, HEL, read-out: Antiviral Activity EC50, TK− VZV Strain, HEL cell cultures) was 24.9 µM, the EC50 (TK− VZV strain; read-out: Antiviral Activity EC50, TK− VZV Strain, HEL cell cultures) was 13.7 µM and the “Cytotoxicity, Cell Morphology (MCC)” value (HEL cells) was greater than 300 μM.
